Measured values published in patent US5582813A, “Iodine-containing fluorocarbon contrast agents” (Alliance Pharmaceutical Corp., priority 1993, dated 1996).

Assays:
[1] = In vitro opacity to X-rays of compounds in hexane solution (Philips Tomoscan LX); assay type: physicochemical; settings: 0.34 mol/L in hexane; 120 kV, 175 mA
Description: In order to determine the relative radiopacity of the compounds used in the present invention to X-rays, we undertook an in vitro study to compare the radiopacity of the above compound (IA) in relation to the radiopacity of perfluorooctyl bromide.
A solution of Compound IA was prepared having a concentration of 0.34 mol/L in hexane. A second solution of perfluorooctyl bromide (PFOB) with the same concentration in hexane was also prepared. The opacity to X-rays of the respective compounds in the hexane solutions was determined using a Philips Tomoscan LX 120 kV, 175 mA apparatus.
Following the procedure described in Example 1, we also measured the opacity to X-rays of Compound IIIA. As described, a solution of Compound IIIA was prepared at a concentration of 0.34 mol/L in hexane.
We also measured the radiopacity of each of the compositions using the in vitro test described in Example 1, where 0.34 mol/L solutions of the compositions were prepared in hexane and scanned using a Philips Tomoscan LX 120 kV, 175 mA apparatus.

[2] = system: liver; test: In vivo radiopacity, rabbit liver imaging; set-up: species or system rabbits; settings: 0.39 g of Compound IA
Description: In order to determine the ability of the compositions of the present invention to operate as effective contrast enhancement agents, we undertook an in vivo study in rabbits to image their livers.
In the study, 3 rabbits were injected with the emulsion of Example 5 at a dose of 3 mL of emulsion per kg of animal, i.e., 2.34 g/kg (4.2 mM of Compound IA), at the rate of 0.5 mL/min.
The radiopacity of the liver and spleen of each rabbit was then measured. The animals were held in a cage and radiopacity was measured using a Philips Tomoscan LX scanner at 120 kV and 175 mA, with continuous 5 mm scans slice with 7 mm intervals. The duration of each scan was 1.2 seconds. These measurements were taken before the injection, then at 24 hours, 48 hours, 7 days, 15 days, and 30 days after the injection.
The results from this study are shown in FIG. 2, which is a bar graph showing the comparison between the radiopacity of the liver (as determined by the increase in Hounsfield units) observed with the emulsion of Example 5 and a PFOB emulsion (Example 6), at 24 hours and 48 hours after injection. The concentration of the emulsion of Example 5 was at a dose of […]. The concentration of the PFOB emulsion was at a dose of 2.7 g/kg body weight (5.4 mM of Perflubron/kg).

[3] = system: mice; test: Toxicity, intraperitoneal injection in mice; assay type: in vivo; settings: 10 mice, about 45 g/kg, one month
Source text: (§1) Beyond radiopacity and stability, the compounds used in the present invention are biocompatible. They are tolerated in high doses in animals. For example, in intraperitoneal administration in mice, the mice were still alive at the end of the protocol, one month post injection, even after doses of up to 45 g/kg of the iodinated fluorinated compounds used in the present invention had been injected. Further, in intravenous administration to mice of the compounds used in the present invention in emulsified form, the mice lived past the end of the protocol, one month post injection of doses up to 8 g/kg.
(§2) In order to determine the toxicity of Compound IA, we injected mice intraperitoneally with the compound. In the experiment, 10 mice were interperitoneally injected with a dose of about 45 g/kg per animal of Compound IA.
(§3) Compound IIIA was also tested for toxicity, following the procedure described in Example 2. A similar tolerance of greater than 45 g/kg animal weight was observed.
(§4) Each of the composition were intraperitoneally injected into mice at doses of 50 g/kg. All of the mice so injected survived and were alive past the end of the protocol, 30 days post injection.

[4] = Toxicity, intraperitoneal injection in mice; assay type: in vivo; settings: mouse, in vivo, ip; mice, intraperitoneal, g/kg animal weight; read-out: tolerance
Source text: as §1, §2, §3, §4

Row | Structure (SMILES) | radiopacity relative to PFOB [1] | amount of Perflubron giving equivalent contrast enhancement, relative to Compound IA [2] [times] | survival after intraperitoneal injection [3] | opacity to X-rays (in words) [1] | MTD [4] [mg/kg]
1 | CCCCCCC(I)=CC(F)(F)C(F)(F)C(F)(F)C(F)(F)C(F)(F)C(F)(F)F [Compound IA, C6 F13 --CH=CI--C6 H13] | approximately four | 7 | all animals survived and were thriving, showing no ill effects |  | 
2 | CCCCCCC(I)=CC(F)(F)C(F)(F)C(F)(F)C(F)(F)C(F)(F)C(F)(F)C(F)(F)C(F)(F)F [Compound IIIA, C8 F17 --CH=CI--C6 H13] |  |  |  | A similar opacity was observed for Compound IIIA as was observed for Compound IA | > 45000
